Assay results taken from publication PMC2605449, “Modification of carbonic anhydrase II with acetaldehyde, the first metabolite of ethanol, leads to decreased enzyme activity” (BMC Biochemistry, 2008).

Target: T1, recombinant human CA II (carbonic anhydrase isozyme II) (Homo sapiens, UniProt P00918, S2A)
T1 construct: gene CA2; recombinant in E. coli, full length, initiator Met removed, second residue Ser changed to Ala by cloning
Assay: end-point titration (Maren) with spectrophotometric colour determination
Type: biochemical
Conditions: covalent; pretreated […] h at […] °C, […] NaBH3(CN) added after […] h (N-ethyllysine adducts); CO2 substrate, ice-cold

% reduction in activity at 100 mM: 23.7%
Compound: CC=O [acetaldehyde]
